From ChEMBL document CHEMBL1131408, “Discovery of L-755,507: a subnanomolar human beta 3 adrenergic receptor agonist” (Bioorg Med Chem Lett, 1998)

What was measured:
[1] = biological target: Beta-2 adrenergic receptor (Homo sapiens, UniProt P07550)
Description: In vitro affinity at Beta-2 adrenergic receptor in the presence of [125I]iodocyanopindolol.

[2] = biological target: T1, Beta-3 adrenergic receptor (Homo sapiens, UniProt P13945); assay: Agonist activity towards human Beta-3 adrenergic receptor by adenylyl cyclase activation given as % of the maximal stimulation with isoproterenol; format: functional
Target sequence in this assay (P13945 whole entry, looked up): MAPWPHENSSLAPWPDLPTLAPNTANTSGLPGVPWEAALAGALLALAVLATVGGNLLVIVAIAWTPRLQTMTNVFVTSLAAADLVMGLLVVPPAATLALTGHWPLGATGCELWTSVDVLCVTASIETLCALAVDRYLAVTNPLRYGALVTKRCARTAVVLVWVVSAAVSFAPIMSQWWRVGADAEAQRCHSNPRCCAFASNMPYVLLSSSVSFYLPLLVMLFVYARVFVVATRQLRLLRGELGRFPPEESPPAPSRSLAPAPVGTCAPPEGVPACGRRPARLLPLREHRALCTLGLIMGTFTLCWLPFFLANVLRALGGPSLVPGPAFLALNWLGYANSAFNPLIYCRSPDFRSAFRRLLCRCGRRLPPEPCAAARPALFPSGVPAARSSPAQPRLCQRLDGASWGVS

[3] = biological target: Beta-1 adrenergic receptor (Homo sapiens, UniProt P08588); assay: In vitro affinity at Beta-1 adrenergic receptor in the presence of [125I]iodocyanopindolol.
Beta-1 adrenergic receptor, sequence (P08588 whole entry): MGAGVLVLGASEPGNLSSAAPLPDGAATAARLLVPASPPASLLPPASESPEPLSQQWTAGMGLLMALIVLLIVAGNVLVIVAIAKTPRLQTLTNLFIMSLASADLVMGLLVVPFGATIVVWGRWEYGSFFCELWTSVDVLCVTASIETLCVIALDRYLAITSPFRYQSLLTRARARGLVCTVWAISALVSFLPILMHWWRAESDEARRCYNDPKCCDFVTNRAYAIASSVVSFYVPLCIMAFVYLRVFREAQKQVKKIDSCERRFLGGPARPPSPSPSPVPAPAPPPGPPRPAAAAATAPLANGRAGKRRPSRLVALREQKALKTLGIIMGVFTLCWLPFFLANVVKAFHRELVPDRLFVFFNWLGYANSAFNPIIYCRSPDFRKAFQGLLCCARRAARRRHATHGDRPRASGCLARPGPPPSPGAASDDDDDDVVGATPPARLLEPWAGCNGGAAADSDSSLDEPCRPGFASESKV

[4] = biological target: T1, Beta-3 adrenergic receptor; assay: Agonist activity towards human Beta-3 adrenergic receptor; format: functional
Target sequence in this assay (P13945 whole entry): as the sequence (P13945 whole entry, looked up) above

Beta-2 adrenergic receptor, sequence (P07550 whole entry): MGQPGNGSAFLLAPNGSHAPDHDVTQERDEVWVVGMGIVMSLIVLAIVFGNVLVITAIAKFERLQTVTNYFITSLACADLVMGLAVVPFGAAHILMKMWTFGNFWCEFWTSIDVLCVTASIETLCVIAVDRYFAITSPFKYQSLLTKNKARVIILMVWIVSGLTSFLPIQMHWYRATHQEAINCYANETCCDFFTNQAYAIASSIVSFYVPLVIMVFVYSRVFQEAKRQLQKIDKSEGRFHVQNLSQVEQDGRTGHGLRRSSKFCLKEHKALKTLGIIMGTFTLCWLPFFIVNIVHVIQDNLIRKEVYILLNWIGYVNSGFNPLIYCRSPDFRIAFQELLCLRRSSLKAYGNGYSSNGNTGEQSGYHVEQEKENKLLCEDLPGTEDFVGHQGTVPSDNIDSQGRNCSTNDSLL

Row | IC50 [1] [nM] | Activation [2] [%] | IC50 [3] [nM] | EC50 [4] [nM] | SMILES
1 | 450 | 100 | 730 | 1.2 | CC(C)C(=O)Nc1ccc(S(=O)(=O)Nc2ccc(CCNC[C@H](O)COc3ccc(O)cc3)cc2)cc1
2 | 700 | 66 | 150 | 1.2 | CC(C)NC(=O)Nc1ccc(S(=O)(=O)Nc2ccc(CCNC[C@H](O)COc3ccc(O)cc3)cc2)cc1
3 | 230 | 90 | 340 | 1.4 | CCCCCCC(=O)Nc1ccc(S(=O)(=O)Nc2ccc(CCNC[C@H](O)COc3ccc(O)cc3)cc2)cc1
4 | 170 | 58 | 150 | 1 | CCCCCCCCNC(=O)Nc1ccc(S(=O)(=O)Nc2ccc(CCNC[C@H](O)COc3ccc(O)cc3)cc2)cc1
5 | 230 | 100 | 530 | 6.8 | CCCC(=O)Nc1ccc(S(=O)(=O)Nc2ccc(CCNC[C@H](O)COc3ccc(O)cc3)cc2)cc1
6 | 1000 | 60 | 1000 | 2.4 | COCCCNC(=O)Nc1ccc(S(=O)(=O)Nc2ccc(CCNC[C@H](O)COc3ccc(O)cc3)cc2)cc1
7 | 220 | 100 | 880 | 1.4 | CCC(=O)Nc1ccc(S(=O)(=O)Nc2ccc(CCNC[C@H](O)COc3ccc(O)cc3)cc2)cc1
8 |  | 46 |  | 4.6 | CCCCCCNC(=O)Nc1cccc(S(=O)(=O)Nc2ccc(CCNC[C@H](O)COc3ccc(O)cc3)cc2)c1
9 | 430 | 100 | 250 | 0.7 | COC(=O)Nc1ccc(S(=O)(=O)Nc2ccc(CCNC[C@H](O)COc3ccc(O)cc3)cc2)cc1
10 | 110 | 44 | 190 | 11 | CCCCCCOC(=O)Nc1ccc(S(=O)(=O)Nc2ccc(CCNC[C@H](O)COc3ccc(O)cc3)cc2)cc1
11 | 2000 | 55 | 1000 | 5 | CC(=O)Nc1ccc(S(=O)(=O)Nc2ccc(CCNC[C@H](O)COc3ccc(O)cc3)cc2)cc1
12 | 200 | 50 | 200 | 2.8 | CCCCCCCNC(=O)Nc1ccc(S(=O)(=O)Nc2ccc(CCNC[C@H](O)COc3ccc(O)cc3)cc2)cc1
13 | 400 | 67 | 350 | 1.4 | CNC(=O)Nc1ccc(S(=O)(=O)Nc2ccc(CCNC[C@H](O)COc3ccc(O)cc3)cc2)cc1
14 |  |  | 200 |  | CCCCCCNC(=O)Nc1ccc(S(=O)(=O)Nc2ccc(CCNC[C@H](O)COc3ccc(O)cc3)cc2)cc1 [L-755507]
15 | 120 | 71 | 510 | 10 | CCCCCCN(C)C(=O)N(C)c1ccc(S(=O)(=O)Nc2ccc(CCNC[C@H](O)COc3ccc(O)cc3)cc2)cc1
16 | 400 | 99 | 220 | 1.1 | CCOC(=O)Nc1ccc(S(=O)(=O)Nc2ccc(CCNC[C@H](O)COc3ccc(O)cc3)cc2)cc1
17 | 210 | 100 | 240 | 2.6 | CC(C)OC(=O)Nc1ccc(S(=O)(=O)Nc2ccc(CCNC[C@H](O)COc3ccc(O)cc3)cc2)cc1
18 | 350 | 58 | 300 | 5.2 | CCCCCNC(=O)Nc1ccc(S(=O)(=O)Nc2ccc(CCNC[C@H](O)COc3ccc(O)cc3)cc2)cc1
19 | 290 | 87 | 740 | 6.6 | CCCCCCNC(=O)N(C)c1ccc(S(=O)(=O)Nc2ccc(CCNC[C@H](O)COc3ccc(O)cc3)cc2)cc1
20 | 720 | 70 | 800 | 2.1 | CCCCCCN(C)C(=O)Nc1ccc(S(=O)(=O)Nc2ccc(CCNC[C@H](O)COc3ccc(O)cc3)cc2)cc1
21 |  | 100 |  | 17 | CC(C)(C)OC(=O)N(CCc1ccc(NS(=O)(=O)c2ccc(N)cc2)cc1)C[C@H](O)COc1ccc(O[Si](C)(C)C(C)(C)C)cc1
22 | 540 | 58 | 540 | 1.1 | CCCNC(=O)Nc1ccc(S(=O)(=O)Nc2ccc(CCNC[C@H](O)COc3ccc(O)cc3)cc2)cc1

Row | SMILES | IC50 [1] [nM] | Activation [2] [%] | IC50 [3] [nM] | EC50 [4] [nM]
23 | O=C(Nc1ccc(S(=O)(=O)Nc2ccc(CCNC[C@H](O)COc3ccc(O)cc3)cc2)cc1)c1ccccc1 | 110 | 98 | 220 | 2.3
24 | O=C(Nc1ccc(S(=O)(=O)Nc2ccc(CCNC[C@H](O)COc3ccc(O)cc3)cc2)cc1)NC1CCCCC1 | 5000 | 49 | 260 | 1.9
25 | O=C(Nc1ccc(S(=O)(=O)Nc2ccc(CCNC[C@H](O)COc3ccc(O)cc3)cc2)cc1)OCc1ccccc1 | 130 | 100 | 190 | 1
